“And” between values parts separate entries of the source, which are not always exact repeats. Identical values can stand only once.
Assay: solvent given as SMILES

Compound: CN(C)c1cccc2c1C(=O)c1ccccc1C2=O
- absorption maximum (in C1CCCCC1): 487 nm
- absorption maximum (in CC1CCCCC1): 487.5 nm
- absorption maximum (in CC#N): 502 nm
- absorption maximum (in CCC(C)CC): 487 nm
- absorption maximum (in CCCCCC): 487.5 nm
- absorption maximum (in CCOC(C)=O): 498 nm

Compound: c1cc2ccc3sc4ccc5cccc6c(c1)c2c3c4c56
- absorption maximum (in ClC(Cl)Cl): 412 nm

Compound: c1ccc2c3c(ccc2c1)C1(c2cc(-c4ccc5ccc6cccc7ccc4c5c67)ccc2-c2ccc(-c4ccc5ccc6cccc7ccc4c5c67)cc21)c1ccc2ccccc2c1O3
- absorption maximum (in ClC(Cl)Cl): 365 nm

Compound: CCCCCC(=O)c1cccc2sc3c(c12)P(=O)(c1ccccc1)c1ccccc1-3 (stereo not drawn)
- absorption maximum (in ClCCl): 359 nm and 380 nm

Compound: NCc1ccc2ccc3cccc4ccc1c2c34
- absorption maximum (in CC#N): 341 nm
- absorption maximum (in CO): 340 nm
- absorption maximum (in ClC(Cl)Cl): 344 nm

Compound: Cc1ccc(-c2nc(-c3cccc(O)c3)[nH]c2-c2ccc(C)cc2)cc1
- absorption maximum (in CO): 300 nm

Compound: Cc1cc(C#Cc2ccccc2)c2ccc3c(C#Cc4ccccc4)cc(C#Cc4ccccc4)c4ccc1c2c43
- absorption maximum (in CS(C)=O): 451 nm
- absorption maximum (in ClC(Cl)(Cl)Cl): 445 nm

Compound: COc1ccc(C2=c3sc(-c4ccc(OC)cc4)c(-c4ccc(OC)cc4)c3=[N+]3C2=Nc2c(-c4ccc(OC)cc4)c4sc(-c5ccc(OC)cc5)c(-c5ccc(OC)cc5)c4n2[B-]3(F)F)cc1
- absorption maximum (in ClC(Cl)Cl): 784 nm

Compound: CCCCN1/C(=C/C=C/C2=[N+](C)c3ccccc3C2(C)C)C(C)(C)c2cc(OC)ccc21
- absorption maximum (in CS(C)=O): 566 nm

Compound: CCCCC(CC)Cn1c2cc(C#N)ccc2c2ccc(C#Cc3ccc4ccc5ccc(C#Cc6ccc7c8ccc(C#N)cc8n(CC(CC)CCCC)c7c6)c6ccc3c4c56)cc21 (stereo not drawn)
- absorption maximum (in ClCCl): 447 nm

Compound: CCC1(CC)c2cc(-c3ccc(-c4ccc5c(c4)C(CC)(CC)c4cc(C(C)(C)C)ccc4-5)cc3)ccc2-c2ccc(C(C)(C)C)cc21
- absorption maximum (in CO): 332.42 nm

Compound: COc1ccc(C2=C(c3ccc(OC)cc3)c3cccc4c3c(cc3nc5ccccc5nc34)O2)cc1
- absorption maximum (in ClCCl): 500 nm

Compound: CCN(CC)c1ccc2cc(/C=C/c3ccccc3)c(=O)oc2c1
- absorption maximum (in CC#N): 421 nm

Compound: COc1ccc2cc(/C=C/c3ccc([N+](=O)[O-])cc3)c(=O)oc2c1
- absorption maximum (in CC#N): 392 nm

Compound: C/C=C/C=C/C1=NC(=C\c2ccc([O-])cc2)/C(=O)N1C
- absorption maximum (in O): 482 nm

Compound: F[B-]1(F)n2c(nc(-c3ccccc3)c2-c2ccccc2)-c2cccc[n+]21
- absorption maximum (in C1CCCCC1): 429 nm
- absorption maximum (in C1CCOC1): 404 nm
- absorption maximum (in C1COCCO1): 387 nm
- absorption maximum (in CC#N): 393 nm and 363 nm
- absorption maximum (in CCCCCC): 428 nm and 427 nm
- absorption maximum (in CO): 391 nm
- absorption maximum (in ClC(Cl)Cl): 414 nm and 388 nm
- absorption maximum (in ClCCl): 408 nm

Compound: N#Cc1ccc(-n2c(-c3ccc(-c4ccc(-c5nc6c7ccccc7c7ccccc7c6n5-c5ccc(C#N)c6ccccc56)cc4)cc3)nc3c4ccccc4c4ccccc4c32)c2ccccc12
- absorption maximum (in ClCCl): 340 nm

Compound: CCc1ccc(/C=N/c2cc(C(C)C)c(O)cc2C)cc1
- absorption maximum (in C1CCCCC1): 344 nm
- absorption maximum (in C1CCOC1): 348 nm
- absorption maximum (in C1COCCO1): 347 nm
- absorption maximum (in CC#N): 340 nm
- absorption maximum (in CC(C)(C)O): 350 nm
- absorption maximum (in CC(C)O): 347 nm
- absorption maximum (in CCCCCC): 342 nm
- absorption maximum (in CCCCO): 349 nm
- absorption maximum (in CCO): 346 nm
- absorption maximum (in CCOC(C)=O): 346 nm
- absorption maximum (in CN(C)C=O): 351 nm
- absorption maximum (in CO): 346 nm
- absorption maximum (in CS(C)=O): 352 nm
- absorption maximum (in ClC(Cl)Cl): 343 nm
- absorption maximum (in ClCCl): 341 nm
- absorption maximum (in O): 354 nm
- absorption maximum (in OCCO): 346 nm

Compound: CC(=O)OCCOCCN1C(=O)c2cc(NCCOCCO)c3c4c(cc(NCCOCCO)c(c24)C1=O)C(=O)N(CCOCCOC(C)=O)C3=O
- absorption maximum (in CO): 604 nm
- absorption maximum (in ClC(Cl)Cl): 610 nm
- absorption maximum (in O): 622 nm

Compound: CC1=CC(C)=[N+]2C1=C(c1ccc(I)cc1)c1c(C)cc(C)n1[B-]2(Oc1ccccc1)Oc1ccccc1
- absorption maximum (in ClC(Cl)Cl): 506 nm

Compound: CC(C)(C)c1cc(C(C)(C)C)c2oc3c(c2c1)C=CN1C(=O)C2=C4c5oc6c(C(C)(C)C)cc(C(C)(C)C)cc6c5C=CN4C(=O)C2=C31
- absorption maximum (in CN(C)C=O): 645 nm
- absorption maximum (in ClC(Cl)Cl): 643 nm

Compound: COc1cc(/C=C/CO)ccc1O
- absorption maximum (in O): 295 nm

Compound: O=Cc1ccc(C#CC(C#Cc2ccc(C=O)o2)=Cc2ccc(C=C(C#Cc3ccc(C=O)o3)C#Cc3ccc(C=O)o3)cc2)o1
- absorption maximum (in ClC(Cl)Cl): 450 nm

Compound: CC(C)(C)c1ccc2c(c1)c1cc(C(C)(C)C)ccc1n2-c1ccc(-c2cccs2)s1
- absorption maximum (in ClCCl): 340 nm

— the Deep4Chem optical property database
